#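 Step 1: Grow cells in 96-well plates. Step 2: Expose to compound for 48 hours at 5 concentrations. Step 3: Interpolate endpoints linearly; if unreached, use highest concentration. TGI: total growth inhibition.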
# How the values were obtained:
# Test in all cases: inhibition of tumour cell growth, NCI panel, 48 h
# [1] = test system: UO-31 renal
# [2] = test system: MOLT-4 leukemia
# [3] = test system: NCI-H460 lung
# [4] = test system: MALME-3M melanoma
# [5] = test system: U251 CNS
# [6] = test system: SF-539 CNS
# [7] = test system: HL-60(TB) leukemia
# [8] = test system: A498 renal
# [9] = test system: CCRF-CEM leukemia
# [10] = test system: KM12 colon
# [11] = test system: COLO 205 colon
# [12] = test system: HCT-15 colon
# [13] = test system: EKVX NSCLC
# [14] = test system: DMS 114 small cell lung
# [15] = test system: IGROV1 ovarian
# [16] = test system: SF-295 CNS
# [17] = test system: RPMI-8226 leukemia
# [18] = test system: HCC-2998 colon
# [19] = test system: SF-268 CNS
# [20] = test system: RXF-631 renal
# [21] = test system: OVCAR-5 ovarian
# [22] = test system: SW-620 colon
# [23] = test system: NCI-H522 lung
# [24] = test system: SN12C renal
# [25] = test system: ACHN renal
# [26] = test system: A549 NSCLC
# [27] = test system: KM20L2 colon
# [28] = test system: TK-10 renal
# [29] = test system: HOP-18 NSCLC
# [30] = test system: UACC-62 melanoma
# [31] = test system: LOX IMVI melanoma
# [32] = test system: SNB-19 CNS
# [33] = test system: HOP-62 NSCLC
# [34] = test system: NCI-H23 lung
# [35] = test system: M19-MEL melanoma
# [36] = test system: SNB-78 CNS
# [37] = test system: HCT-116 colon
# [38] = test system: OVCAR-3 ovarian
# [39] = test system: UACC-257 melanoma
# [40] = test system: RXF 393 renal
# [41] = test system: K-562 leukemia
# [42] = test system: SK-MEL-5 melanoma
# [43] = test system: NCI-H226 lung
# [44] = test system: OVCAR-8 ovarian
# [45] = test system: OVCAR-4 ovarian
# [46] = test system: 786-0 renal
# [47] = test system: SK-OV-3 ovarian
# [48] = test system: HT29 colon
# [49] = test system: HOP-92 NSCLC
# [50] = test system: M14 melanoma
# [51] = test system: SK-MEL-28 melanoma
# [52] = test system: DMS 273 small cell lung
# [53] = test system: DLD-1 colon
# [54] = test system: LXFL 529 NSCLC
# [55] = test system: SNB-75 CNS
# [56] = test system: SK-MEL-2 melanoma
# [57] = test system: CAKI-1 renal
# [58] = test system: SR leukemia
compound,measurement,setting,value
Cc1ccc(-c2cc(-c3ccccc3)c(C#N)c(=O)n2C2OC(CO)C(O)C(O)C2O)cc1 (stereo not given),TGI,[1],> 100 µM
same,TGI,[2],85.3 µM
same,TGI,[3],> 100 µM
same,TGI,[4],> 100 µM
same,TGI,[5],> 100 µM
same,TGI,[6],> 100 µM
same,TGI,[7],> 100 µM
same,TGI,[8],> 100 µM
same,TGI,[9],> 100 µM
same,TGI,[10],> 100 µM
same,TGI,[11],> 100 µM
same,TGI,[12],> 100 µM
same,TGI,[13],> 100 µM
same,TGI,[14],> 100 µM
same,TGI,[15],> 100 µM
same,TGI,[16],> 100 µM
same,TGI,[17],> 100 µM
same,TGI,[18],> 100 µM
same,TGI,[19],> 100 µM
same,TGI,[20],> 100 µM
same,TGI,[21],> 100 µM
same,TGI,[22],> 100 µM
same,TGI,[23],> 100 µM
same,TGI,[24],> 100 µM
same,TGI,[25],> 100 µM
same,TGI,[26],> 100 µM
same,TGI,[27],> 100 µM
same,TGI,[28],> 100 µM
same,TGI,[29],> 100 µM
same,TGI,[30],> 100 µM
same,TGI,[31],> 100 µM
same,TGI,[32],> 100 µM
same,TGI,[33],> 100 µM
same,TGI,[34],> 100 µM
same,TGI,[35],> 100 µM
same,TGI,[36],> 100 µM
same,TGI,[37],> 100 µM
same,TGI,[38],> 100 µM
same,TGI,[39],> 100 µM
same,TGI,[40],> 100 µM
same,TGI,[41],> 100 µM
same,TGI,[42],> 100 µM
same,TGI,[43],> 100 µM
same,TGI,[44],> 100 µM
same,TGI,[45],> 100 µM
same,TGI,[46],> 100 µM
same,TGI,[47],> 100 µM
same,TGI,[48],> 100 µM
same,TGI,[49],> 100 µM
same,TGI,[50],> 100 µM
same,TGI,[51],> 100 µM
same,TGI,[52],> 100 µM
same,TGI,[53],> 100 µM
same,TGI,[54],> 100 µM
CC(=O)OCC(OC(C)=O)C(OC(C)=O)C(OC(C)=O)C(=O)CNn1c(-c2ccccc2Cl)nc2ccccc2c1=O (stereo not given),TGI,[1],> 100 µM
same,TGI,[2],> 100 µM
same,TGI,[3],> 100 µM
same,TGI,[4],> 100 µM
same,TGI,[5],> 100 µM
same,TGI,[6],> 100 µM
same,TGI,[7],> 100 µM
same,TGI,[8],> 100 µM
same,TGI,[9],> 100 µM
same,TGI,[10],> 100 µM
same,TGI,[11],> 100 µM
same,TGI,[55],> 100 µM
same,TGI,[12],> 100 µM
same,TGI,[13],> 100 µM
same,TGI,[14],> 100 µM
same,TGI,[16],> 100 µM
same,TGI,[17],> 100 µM
same,TGI,[56],> 100 µM
same,TGI,[19],> 100 µM
same,TGI,[21],> 100 µM
same,TGI,[22],> 100 µM
same,TGI,[23],> 100 µM
same,TGI,[24],> 100 µM
same,TGI,[25],> 100 µM
same,TGI,[26],> 100 µM
same,TGI,[27],> 100 µM
same,TGI,[30],> 100 µM
same,TGI,[31],> 100 µM
same,TGI,[32],> 100 µM
same,TGI,[33],> 100 µM
same,TGI,[34],> 100 µM
same,TGI,[35],> 100 µM
same,TGI,[36],> 100 µM
same,TGI,[37],> 100 µM
same,TGI,[38],> 100 µM
same,TGI,[39],> 100 µM
same,TGI,[40],> 100 µM
same,TGI,[41],> 100 µM
same,TGI,[42],> 100 µM
same,TGI,[57],> 100 µM
same,TGI,[43],> 100 µM
same,TGI,[58],> 100 µM
same,TGI,[44],> 100 µM
same,TGI,[45],> 100 µM
same,TGI,[46],> 100 µM
same,TGI,[47],> 100 µM
same,TGI,[48],> 100 µM
same,TGI,[50],> 100 µM
same,TGI,[51],> 100 µM
same,TGI,[52],> 100 µM
same,TGI,[54],> 100 µM
